ChEMBL document CHEMBL1147425, “Structure-activity relationships of non-imidazole H(3) receptor ligands. Part 3: 5-Substituted 3-phenyl-1,2,4-oxadiazoles as potent antagonists” (Bioorg Med Chem Lett, 2004)

Assays:
[1] = target: Histamine H3 receptor (Rattus norvegicus, UniProt Q9QYN8); experiment: Binding affinity for rat histamine H3 receptor on rat cortical cells
[2] = target: Histamine H3 receptor (Homo sapiens, UniProt Q9Y5N1); experiment: Binding affinity for human histamine H3 receptor on human colon cells; type: cell-based
[3] = target: Histamine H4 receptor (Homo sapiens, UniProt Q9H3N8); experiment: Binding affinity towards histamine H4 receptor of human colon cells was determined; type: cell-based
[4] = tested on: Mus musculus; experiment: Antagonistic effect was observed against agonist induced dipsogenia in mice after i.p. administration of compound; Active; type: functional
[5] = target: Histamine H2 receptor (Homo sapiens, UniProt P25021); experiment: Binding affinity towards histamine H2 receptor of human colon cells was determined; type: cell-based
[6] = target: Histamine H1 receptor (Homo sapiens, UniProt P35367); experiment: Binding affinity towards histamine H1 receptor of human colon cells was determined; type: cell-based
Sequence of Histamine H1 receptor (P35367 whole entry): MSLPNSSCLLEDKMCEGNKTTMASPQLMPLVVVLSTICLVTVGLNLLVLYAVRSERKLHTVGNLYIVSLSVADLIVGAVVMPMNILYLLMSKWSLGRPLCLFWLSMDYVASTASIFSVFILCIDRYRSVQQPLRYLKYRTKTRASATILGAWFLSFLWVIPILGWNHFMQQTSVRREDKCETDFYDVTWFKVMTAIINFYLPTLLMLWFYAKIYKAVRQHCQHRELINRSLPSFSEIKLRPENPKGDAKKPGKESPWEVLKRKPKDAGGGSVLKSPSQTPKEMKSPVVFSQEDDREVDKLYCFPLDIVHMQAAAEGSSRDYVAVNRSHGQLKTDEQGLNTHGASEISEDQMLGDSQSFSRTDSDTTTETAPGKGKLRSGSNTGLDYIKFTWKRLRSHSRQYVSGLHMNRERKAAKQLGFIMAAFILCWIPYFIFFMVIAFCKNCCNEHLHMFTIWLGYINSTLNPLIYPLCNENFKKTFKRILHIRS

Sequence of Histamine H3 receptor (Rattus norvegicus, UniProt Q9QYN8) (Q9QYN8 whole entry): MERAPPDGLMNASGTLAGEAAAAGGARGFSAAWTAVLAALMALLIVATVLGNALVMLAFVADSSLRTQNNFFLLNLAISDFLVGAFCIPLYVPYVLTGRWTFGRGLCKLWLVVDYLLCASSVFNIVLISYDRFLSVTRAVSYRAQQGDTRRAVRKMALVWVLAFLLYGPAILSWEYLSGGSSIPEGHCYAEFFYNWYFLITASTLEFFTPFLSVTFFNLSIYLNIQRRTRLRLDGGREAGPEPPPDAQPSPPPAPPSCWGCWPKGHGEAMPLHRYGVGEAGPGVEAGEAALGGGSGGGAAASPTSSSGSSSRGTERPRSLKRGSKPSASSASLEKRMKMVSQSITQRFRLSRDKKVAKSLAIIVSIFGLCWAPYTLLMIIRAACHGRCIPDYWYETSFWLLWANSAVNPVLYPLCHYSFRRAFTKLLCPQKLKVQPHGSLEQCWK
Sequence of Histamine H3 receptor (Homo sapiens, UniProt Q9Y5N1) (Q9Y5N1 whole entry): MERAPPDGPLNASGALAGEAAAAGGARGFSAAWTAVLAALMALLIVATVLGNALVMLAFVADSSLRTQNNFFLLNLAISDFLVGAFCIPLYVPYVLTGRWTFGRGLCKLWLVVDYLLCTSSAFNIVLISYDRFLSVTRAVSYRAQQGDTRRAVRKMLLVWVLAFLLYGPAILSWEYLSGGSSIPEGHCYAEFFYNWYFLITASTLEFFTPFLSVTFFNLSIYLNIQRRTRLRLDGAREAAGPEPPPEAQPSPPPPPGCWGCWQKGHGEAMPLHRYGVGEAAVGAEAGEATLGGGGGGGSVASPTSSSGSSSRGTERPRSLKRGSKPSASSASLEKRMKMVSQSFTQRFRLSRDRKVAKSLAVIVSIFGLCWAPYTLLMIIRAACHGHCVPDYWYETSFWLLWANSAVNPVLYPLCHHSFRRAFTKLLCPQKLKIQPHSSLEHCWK
Sequence of Histamine H2 receptor (P25021 whole entry): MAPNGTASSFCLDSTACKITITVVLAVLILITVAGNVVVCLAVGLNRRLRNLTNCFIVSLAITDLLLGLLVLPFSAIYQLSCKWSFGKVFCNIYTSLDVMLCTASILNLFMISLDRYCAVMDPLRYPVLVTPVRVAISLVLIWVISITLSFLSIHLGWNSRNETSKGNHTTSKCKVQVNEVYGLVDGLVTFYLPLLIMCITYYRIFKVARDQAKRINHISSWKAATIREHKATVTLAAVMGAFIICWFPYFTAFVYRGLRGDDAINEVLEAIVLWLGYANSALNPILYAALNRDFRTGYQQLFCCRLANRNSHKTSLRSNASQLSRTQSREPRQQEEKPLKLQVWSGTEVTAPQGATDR

Structure (SMILES)	Ki [1]	Ki [2]	Ki [3]	Ki [5]	Ki [6]	Activity [4]
C[C@@H](NC(=O)c1ccco1)C(=O)N1CCCN(CCCOc2ccc(-c3noc(CC(C)(C)C)n3)c(F)c2)CC1	2.4 nM	40 nM				
CC(C)C(=O)N[C@H](C)C(=O)N1CCN(CCCOc2ccc(-c3noc(CC4CCCC4)n3)c(F)c2)CC1	8 nM	230 nM				
Cc1ccc(C)c(C(=O)N[C@H](C)C(=O)N2CCN(CCCOc3ccc(-c4noc(CC5CCCC5)n4)c(F)c3)CC2)c1	6.6 nM	75 nM				
C[C@@H](NC(=O)c1cccc(C(F)(F)F)c1)C(=O)N1CCN(CCCOc2ccc(-c3noc(CC4CCCC4)n3)c(F)c2)CC1	10 nM	87 nM				
C[C@@H](NC(=O)c1ccco1)C(=O)N1CCN(CCCOc2ccc(-c3noc(-c4ccccc4)n3)c(F)c2)CC1 (stereo in doubt; 13q)	13 nM	83 nM				
CC(C)CC(=O)N[C@H](C)C(=O)N1CCCN(CCCOc2ccc(-c3noc(CC4CCCC4)n3)c(F)c2)CC1	1.1 nM	13 nM				
CC(C)c1nc(-c2ccc(OCCCN3CCCN(C(=O)[C@@H](C)NC(=O)c4ccco4)CC3)cc2F)no1	2.1 nM	46 nM				
C[C@@H](NC(=O)c1ccco1)C(=O)N1CCCN(CCCOc2ccc(-c3noc(-c4cccs4)n3)c(F)c2)CC1	6.2 nM	160 nM				
C[C@@H](NC(=O)c1ccco1)C(=O)N1CCCN(CCCOc2ccc(-c3noc(CC4CCCCC4)n3)c(F)c2)CC1	2.6 nM	21 nM				
C[C@@H](NC(=O)c1cnccn1)C(=O)N1CCN(CCCOc2ccc(-c3noc(-c4ccccc4)n3)c(F)c2)CC1	1.7 nM	29 nM				
C[C@@H](NC(=O)c1ccco1)C(=O)N1CCCN(CCCOc2ccc(-c3noc(C4CCCCCC4)n3)c(F)c2)CC1	3.3 nM	15 nM				
C[C@@H](NC(=O)C1CCCC1)C(=O)N1CCN(CCCOc2ccc(-c3noc(-c4ccccc4)n3)c(F)c2)CC1	7 nM	70 nM				
C[C@@H](NC(=O)c1ccsc1)C(=O)N1CCN(CCCOc2ccc(-c3noc(-c4ccccc4)n3)c(F)c2)CC1	4.2 nM	28 nM				
CCC(=O)N[C@H](C)C(=O)N1CCN(CCCOc2ccc(-c3noc(CC4CCCC4)n3)c(F)c2)CC1	7.2 nM	170 nM				
C[C@@H](NC(=O)C(C)(C)C)C(=O)N1CCCN(CCCOc2ccc(-c3noc(CC4CCCC4)n3)c(F)c2)CC1	2 nM	36 nM				
C[C@@H](NC(=O)c1ccc(Cl)c(Cl)c1)C(=O)N1CCCN(CCCOc2ccc(-c3noc(CC4CCCC4)n3)c(F)c2)CC1	31 nM	140 nM				
C[C@@H](NC(=O)c1ccco1)C(=O)N1CCCN(CCCOc2ccc(-c3noc(C4CC4)n3)c(F)c2)CC1	1.5 nM	42 nM				
C[C@@H](NC(=O)c1ccccc1)C(=O)N1CCN(CCCOc2ccc(-c3noc(-c4ccccc4)n3)c(F)c2)CC1	4.6 nM	39 nM				
C[C@@H](NC(=O)c1cccc(F)c1)C(=O)N1CCN(CCCOc2ccc(-c3noc(CC4CCCC4)n3)c(F)c2)CC1	3.8 nM	18 nM				

Further lines, with some results ahead:

Ki [1]	Ki [2]	Ki [3]	Ki [5]	Ki [6]	Structure (SMILES)	Activity [4]
2.4 nM	15 nM	> 10000 nM	> 10000 nM	890 nM	C[C@@H](NC(=O)c1ccc(N(C)C)cc1)C(=O)N1CCN(CCCOc2ccc(-c3noc(CC4CCCC4)n3)c(F)c2)CC1	>0.01 µM/kg
1.8 nM	15 nM				C[C@@H](NC(=O)c1ccc(Cl)c(Cl)c1)C(=O)N1CCN(CCCOc2ccc(-c3noc(CC4CCCC4)n3)c(F)c2)CC1	
1.3 nM	14 nM				CC(C)C(=O)N[C@H](C)C(=O)N1CCCN(CCCOc2ccc(-c3noc(CC4CCCC4)n3)c(F)c2)CC1	
6.9 nM	49 nM				C[C@@H](NC(=O)C1CCCCC1)C(=O)N1CCN(CCCOc2ccc(-c3noc(-c4ccccc4)n3)c(F)c2)CC1	
0.56 nM	8.6 nM				CC(C)CCc1nc(-c2ccc(OCCCN3CCCN(C(=O)[C@@H](C)NC(=O)c4ccco4)CC3)cc2F)no1	
4.2 nM	92 nM				C[C@@H](NC(=O)[C@H]1CCCO1)C(=O)N1CCN(CCCOc2ccc(-c3noc(-c4ccccc4)n3)c(F)c2)CC1	
28 nM	520 nM				C[C@@H](NC(=O)c1ccco1)C(=O)N1CCCN(CCCOc2ccc(-c3noc([C@@H](C)NC(=O)OC(C)(C)C)n3)c(F)c2)CC1	
9.8 nM	170 nM				CC(C)C(NC(=O)OC(C)(C)C)c1nc(-c2ccc(OCCCN3CCCN(C(=O)[C@@H](C)NC(=O)c4ccco4)CC3)cc2F)no1 (some centres not stated)	
1.2 nM	14 nM				C[C@@H](NC(=O)c1ccc(F)cc1)C(=O)N1CCCN(CCCOc2ccc(-c3noc(CC4CCCC4)n3)c(F)c2)CC1	
5 nM	110 nM				CC(C)CC(=O)N[C@H](C)C(=O)N1CCN(CCCOc2ccc(-c3noc(CC4CCCC4)n3)c(F)c2)CC1	
11 nM	520 nM				C[C@@H](NC(=O)c1ccco1)C(=O)N1CCCN(CCCOc2ccc(-c3noc(-c4ccncc4)n3)c(F)c2)CC1	
6.4 nM	100 nM				C[C@@H](NC(=O)CC(C)(C)C)C(=O)N1CCN(CCCOc2ccc(-c3noc(CC4CCCC4)n3)c(F)c2)CC1	
1.5 nM	35 nM				C[C@@H](NC(=O)c1cccc(C#N)c1)C(=O)N1CCN(CCCOc2ccc(-c3noc(CC4CCCC4)n3)c(F)c2)CC1	
7.7 nM	210 nM				C[C@@H](NC(=O)c1ccco1)C(=O)N1CCCN(CCCOc2ccc(-c3noc(C4CCCO4)n3)c(F)c2)CC1 (mixture of isomers)	
2.8 nM	24 nM				C[C@@H](NC(=O)c1ccc(Cl)cc1)C(=O)N1CCN(CCCOc2ccc(-c3noc(CC4CCCC4)n3)c(F)c2)CC1	
